Test results: US9464097B2, “Gold complexes” (UNIVERSITY COURT OF THE UNIVERSITY OF ST. ANDREWS, priority 2010, dated 2016)

How the values were obtained:
human cancer cell lines = assay: Cytotoxicity towards human cancer cell lines, overall comparison with cisplatin; assay type: cell-based; conditions: cytotoxicity across the tested cell lines
Method: (§1) Cytotoxicity assay: The compound/complex was dissolved in DMSO and diluted in DMSO. The final dilution was in the respective culture medium and the final concentration of DMSO was always below 0.01%. Cells were pipetted into microtitre plates (NUNC) at 4000 cells/well and incubated at 37° C. in 5% CO2 in air for 24 hr. Varying concentrations of the compounds/complexes were applied to the cells in 10 μl volumes. The plates were incubated for 3 days at 37° C. 5% CO2 in air. The viability of the cells was measured using the Dojindo kit CCK-8 (Cell counting Kit—8, Dojindo technologies USA, CK04-11) method after incubation for 3 hr in the absence of light. The plates were read on an ELISA plate reader at a wavelength of 450 nm.

[1] = proton borne by the heteroatom, literature value; cited from earlier work
[2] = system: LNCaP (prostate carcinoma) cell line; assay: Cytotoxicity assay (CCK-8 viability), LNCaP; assay type: cell-based, human; conditions: 3 days incubation
Method: as §1

[3] = system: human urothelial cell line (SV-HUC-1); assay: Cytotoxicity assay (CCK-8 viability), SV-HUC-1; assay type: cell-based; conditions: SV-HUC-1, 3 days incubation
Method: as §1

With `CC(C)c1cccc(C(C)C)c1N1C=CN(c2c(C(C)C)cccc2C(C)C)[CH]1[Au][OH]` [complex 2, [Au(OH)(IPr)]] the “Overall activity compared with cisplatin” value (human cancer cell lines) was “superior to that displayed by cisplatin”.

For `Cc1ccc(O)cc1` [p-cresol (14b), p-cresol], the pKa [1] is listed as 18.9.

For `Cc1ccc(S)cc1` [p-thiocresol (14a), p-thiocresol], the pKa [1] is given as 10.3.

With `N.N.[Cl][Pt][Cl]` [cisplatin] the IC50 [2] was 18 µM and the IC50 [3] was 25 µM.
